Holding throughout (experiment): NCI tumour cell line growth inhibition, 48 h
The test system of assay [1] is A549 NSCLC.
Assay [2] has as its system HCT-15 colon.
The test system of assay [3] is M14 melanoma.
Assay [4] has as its system MCF7 breast.
The test system of assay [5] is SF-268 CNS.
The subject of assay [6] is SF-295 CNS.
Assay [7] relates to SNB-75 CNS.
For assay [8], the system named is SW-620 colon.
The subject of assay [9] is U251 CNS.
In assay [10] the test system is SK-MEL-5 melanoma.

Molecules are shown by their SMILES. “And” between values parts separate entries of the source, which are not always exact repeats. Identical values can stand only once.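 Exposure lasted 48 hours, with cells grown in 96-well plates and compounds tested at five concentrations. The concentration for 50% growth inhibition is given as GI50. Definition used: TGI = concentration required for complete inhibition of growth.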

Among the data in PubChem BioAssay (NCI) are TGI and GI50 values, retold here.

As for `O=C1/C(=C/c2cccc3ccccc23)CCc2ccc([N+](=O)[O-])cc21`, the TGI was more than 100 µM in assay [1]; more than 100 µM in assay [2]; more than 100 µM in [3]; 86.5 µM in assay [4]; more than 100 µM in assay [5]; 31.1 µM in assay [6]. The results for the TGI in [7], in [8] and in assay [9] were 42.1 µM, more than 100 µM and 39.4 µM, respectively.

Take `COc1ccccc1NC(=O)CC(=O)NN`: the TGI in [1], in assay [2], in assay [4], in [5], in [6] and in assay [10] was more than 100 µM each time. Further, the TGI in assay [7], in assay [8] and in assay [9] was more than 100 µM each time.

For the compound `Cc1nc(Nc2ccccc2Cl)sc1C(=O)CC(=O)C(N)=O`, the TGI in assay [1], in [2], in [3], in assay [4], in [5] and in assay [6] was more than 100 µM each time. In addition, the TGI in assay [7] is 92.2 µM; in assay [8] it was more than 100 µM; in assay [9], more than 100 µM.

For `Clc1ccc(C2=CCN3CC=C(c4ccc(Cl)cc4)C23)cc1`, the TGI in [1] was 28.3 µM; in assay [2], 23.5 µM; in assay [3], 22.6 µM; in [4], 28.6 µM; in [5] it was 24.2 µM; in assay [6] it was 28.9 µM. Moreover, the values for the TGI in [10], in assay [8] and in [9] were 13.5 µM, 26 µM and 23.7 µM, respectively.

For the compound `C=C1C(C)C2C(Cc3ccccc3)NC(=O)C23OC(=O)/C=C\CC(=O)CCC(C)C/C=C/C3C1O` (stereo not given), the TGI in [1] is 20.9 µM; in [2], 4.41 µM; in [4] it was 5.1 µM; in [5], 7.48 µM; in assay [6], 13.9 µM; in [10] it was 16.3 µM. The TGI came to 2.64 µM in assay [7], 3.82 µM in [8] and 10.7 µM in assay [9]. The GI50 in [4] is 0.695 µM and 1.39 µM; in assay [7], 0.594 µM.

With `CCOc1cc2c(cc1O)C(O)C[C@@H]1[C@@H]2CC[C@]2(C)[C@@H](O)CC[C@@H]12` (stereo not given in full), the TGI in [1], in [2], in [3], in assay [4], in assay [5] and in assay [7] was more than 100 µM each time. This compound also showed a TGI in assay [8] of more than 100 µM.

On to `CCCCN(C)/N=N/c1nc[nH]c1C(N)=O`, for which the TGI in assay [1], in [2], in assay [4], in assay [5], in assay [6] and in [10] was more than 100 µM throughout. The TGI in [7], in assay [8] and in [9] was more than 100 µM in each case.

On to `CCN(CC)C(=O)Cn1c2c(c3ccccc31)CCCC2`, for which the TGI in [1], in [2], in [3], in assay [4], in assay [5] and in assay [6] was more than 100 µM each time. Moreover, the TGI in assay [10] and in [8] was more than 100 µM each time.

As for `O=c1c2ccccc2nc2ccc3c(Cl)[nH][nH]c3c12`, the TGI in assay [1], in assay [2], in assay [3], in [5], in assay [6] and in assay [10] was more than 100 µM in each case. Moreover, the TGI in [7], in assay [8] and in assay [9] was more than 100 µM each time.

As for `CC1(C)Oc2ccc3c(=O)cc(-c4ccccc4)oc3c2C1C(=O)O` (stereo not given), the TGI in assay [1], in [2], in assay [3], in [4], in [5] and in assay [6] was more than 100 µM throughout. Moreover, the TGI in [10] and in [9] was more than 100 µM throughout.

`Cc1nc(-c2cc3ccccc3oc2=O)cs1`: the TGI in [1], in assay [2], in assay [3], in assay [4], in assay [5] and in [6] was more than 100 µM throughout. The TGI in [10], in [8] and in assay [9] was more than 100 µM each time.

Take `COc1ccc(C(=O)/C=C/c2cc(-c3cc(OC)c(OC)c(OC)c3)n[nH]2)cc1`: the GI50 is 1.58 µM in [2]; 2.2 µM in assay [3]; 1.15 µM in assay [4]; 1.99 µM in assay [5]; 1.72 µM in [10]. Moreover, the TGI came out at 4.37 µM in assay [2]; 4.93 µM in assay [3]; 2.96 µM in assay [4]; 5.12 µM in assay [5]; 3.24 µM in assay [10].

With `O=C1C2C=CC(n3[nH]c(=O)n(Cc4ccccc4)c3=O)CC2C(=O)N1c1ccc(Br)cc1` (stereo not given), the TGI in assay [1], in [2], in [3], in assay [5], in assay [6] and in assay [10] was more than 100 µM throughout. For the same compound, the TGI in assay [7], in assay [8] and in [9] was more than 100 µM throughout.

With `O=[N+]([O-])/C(C(Cl)=C(Cl)Cl)=C(/Nc1cccc2cccnc12)n1nnc2ccccc21`, the TGI was more than 100 µM in assay [1]; 28.1 µM in assay [2]; 25.5 µM in [3]; 46.3 µM in assay [4]; 37.4 µM in assay [5]; 42.2 µM in assay [6]. The TGI in [7] worked out at 67.8 µM; in [8], 31.3 µM.

In the case of `CC(C)(C)C1=C(Br)C(O)(C(C)(C)C)OP1(=O)c1ccccc1` (stereo not given), the TGI in assay [1] was more than 100 µM; in assay [2] it was more than 100 µM; in assay [4] it was 43.1 µM; in assay [5], more than 100 µM; in [6] it was more than 100 µM; in [10], more than 100 µM. Besides, the TGI in assay [7], in [8] and in assay [9] was more than 100 µM each time.

On to `Cc1cc(S(=O)(=O)/N=C(/NN)Nc2ccc(Cl)cc2)c(S)cc1Cl`, for which the TGI in assay [1] was 23.8 µM; in assay [2], 53 µM; in [3] it was 34.6 µM; in assay [4], 52 µM; in [5], 61.8 µM; in assay [10], 19.2 µM. Besides, the values for the TGI in assay [7], in assay [8] and in [9] were 28.8 µM, 35.9 µM and 21.7 µM, respectively.

With `COc1ccc(Oc2ccccc2N)cc1`, the TGI in assay [1] was more than 100 µM; in assay [2], more than 100 µM; in assay [3], more than 100 µM; in assay [5], more than 100 µM; in assay [6], more than 100 µM; in [10], 33.6 µM. Moreover, the TGI in assay [7] was more than 100 µM; in assay [8] it was more than 100 µM; in assay [9] it was 38.6 µM.

With `CCOC(=O)C1=C(O)c2ccc(C)cc2C(=O)C1=O`, the TGI in assay [1], in assay [2], in assay [3], in [5], in [6] and in [10] was more than 100 µM throughout. The TGI in assay [7], in assay [8] and in assay [9] was more than 100 µM in each case.

As for `O=C(N=Nc1ccccc1Cl)NNc1ccccc1Cl`, the TGI in [1], in [2], in [3], in assay [5], in assay [10] and in assay [7] was more than 100 µM throughout. Also, the TGI in [8] and in [9] was more than 100 µM in each case.

Take `O=C1NC(N2CCOCC2)=N/C1=C\c1ccc(O)cc1`: the TGI in assay [1], in assay [2], in assay [3], in assay [4], in assay [5] and in [6] was more than 100 µM each time. The TGI in assay [7], in assay [8] and in assay [9] was more than 100 µM throughout.

`[N-]=[N+]=NCC(O)Cn1cnc2c(NC(=O)c3ccccc3)ncnc21` (stereo not given): the TGI in [1], in assay [2], in [3], in assay [5], in [6] and in assay [10] was more than 100 µM in each case. Moreover, the TGI in assay [7], in assay [8] and in [9] was more than 100 µM in each case.

For `NC(=S)NC/C=C/Cl`, the TGI in assay [1], in assay [2], in [3], in assay [4], in assay [6] and in assay [10] was more than 100 µM in each case. Besides, the TGI in assay [7] and in assay [8] was more than 100 µM in each case.

Take `Nc1c(S(=O)(=O)O)cc(S(=O)(=O)O)c2ccc(N=Nc3ccc(/C=C/c4ccc(N=Nc5ccc6c(S(=O)(=O)O)cc(S(=O)(=O)O)c(N)c6c5O)cc4S(=O)(=O)O)c(S(=O)(=O)O)c3)c(O)c12`: the TGI in [1], in assay [2], in assay [4], in [5], in [6] and in [10] was more than 100 µM throughout. Moreover, the TGI in assay [7], in [8] and in [9] was more than 100 µM in each case.

Take `CC1(C)O[C@@H](C[C@]2(C#N)C[C@H](CCl)OC(C)(C)O2)C[C@@H](C#N)O1`: the TGI in assay [1], in assay [2], in assay [3], in [5], in assay [6] and in assay [10] was more than 100 µM in each case. For the same compound, the TGI in assay [7], in assay [8] and in assay [9] was more than 100 µM in each case.

On to `CCSC1=CC2(O)N(CCc3ccc(OC)c(OC)c3)C(=O)CC2(C(=O)OC)CC1=O` (stereo not given), for which the TGI in assay [1] is more than 100 µM; in assay [2], 72.7 µM; in assay [3] it was 56.4 µM; in [4], 40.3 µM; in assay [6], more than 100 µM; in assay [10] it was more than 100 µM. Also, the TGI in assay [8] is 59 µM; in [9], 51.7 µM.

Consider `N/C(=N\N=C\c1ncccc1O)NO`, for which the TGI in [1] is more than 100 µM; in assay [2], more than 100 µM; in assay [4] it was more than 100 µM; in assay [5] it was 90.8 µM; in [6], more than 77.8 µM; in [10] it was more than 31.6 µM. Also, the TGI in assay [7] was more than 62.6 µM; in assay [8] it was more than 100 µM; in assay [9], more than 100 µM.

Regarding `CSc1cnc2ccccc2c1Sc1c[nH]c2ccccc2c1=O`, the TGI is 24.8 µM in assay [1]; more than 80.8 µM in assay [2]; 27.2 µM in [3]; more than 100 µM in assay [5]; more than 46.7 µM in [6]; 26.6 µM in assay [10]. For the same compound, the values for the TGI in assay [7], in assay [8] and in assay [9] were 10.3 µM, more than 32.3 µM and 23.8 µM, respectively.

On to `COc1cc(N(CCC#N)CCC#N)ccc1/C=N\NC(=O)c1ccc(C)cc1`, for which the TGI in assay [1], in assay [2], in assay [3], in [5], in assay [6] and in assay [10] was more than 100 µM throughout. In addition, the TGI in assay [7] is more than 100 µM; in assay [8] it was more than 100 µM; in assay [9] it was 30.8 µM.

With `O=C(O)c1cccc(NC(C(=O)c2ccccc2)c2ccccc2)c1` (stereo not given), the TGI in assay [1], in [2], in assay [3], in [4], in assay [5] and in assay [6] was more than 100 µM throughout. The TGI in assay [10], in assay [8] and in [9] was more than 100 µM each time.

On to `COc1ccc(C)cc(=O)c1O`, for which the TGI in [1], in assay [2], in assay [3], in assay [5], in assay [6] and in assay [10] was more than 100 µM each time. Also, the TGI in assay [7], in assay [8] and in assay [9] was more than 100 µM in each case.
